Several values for one entry are separate records, joined by “and”; a condition that tells them apart may be missing. Equal values may be shown once. Numbers after ± are expanded uncertainties.
Tests used:
[1] = 298.15 K; 101.33 kPa; Liquid
[2] = xn = mol fraction of the nth substance listed; conditions: 298.15 K, 101.33 kPa, Liquid, Vibrating tube method

| Structure (SMILES) | mass density [1] [kg/m3] | also measured |
| --- | --- | --- |
| CCOC(C)=O [ethyl acetate] | 894.51 ± 0.54 | – |
| O=C1OCCO1 [ethylene carbonate] + C1CCOC1 | – | mass density ([2]; x2 = 0.4631): 1110.32 ± 0.57 kg/m3 and 1109.98 ± 0.57 kg/m3 and 1109.85 ± 0.57 kg/m3 |
| O=C1OCCO1 [ethylene carbonate] + CC#N | – | mass density ([2]; x2 = 0.5533): 1070.54 ± 0.55 kg/m3 and 1071.16 ± 0.54 kg/m3 |
| O=C1OCCO1 [ethylene carbonate] + CCOC(C)=O | – | mass density ([2]; x2 = 0.4577): 1118.46 ± 0.58 kg/m3 [middle of 4 runs] |
| O=C1OCCO1 [ethylene carbonate] + COCCOC | – | mass density ([2]; x2 = 0.4158): 1099.62 ± 0.57 kg/m3 and 1099.78 ± 0.56 kg/m3 and 1100.01 ± 0.56 kg/m3 |

Further lines, with some results ahead:

| mass density [1] [kg/m3] | Structure (SMILES) | also measured |
| --- | --- | --- |
| 861.43 ± 0.56 | COCCOC [1,2-dimethoxyethane] | – |
| 776.69 ± 0.62 | CC#N [acetonitrile] | – |
| 882.01 ± 0.54 | C1CCOC1 [tetrahydrofuran] | – |

From the NIST ThermoML archive (doi:10.1016/j.jct.2003.09.005)
